The record followed here is patent publication US12577245B2, “Sulfonyl benzamide derivatives as Bcl-2 inhibitors” (ASCENTAGE PHARMA (SUZHOU) CO., LTD., priority 2021, dated 2026).

This assay concerns the target Bcl-2 G101V (Homo sapiens, UniProt P10415, G101V). Put plainly: Bcl-2 G101V inhibition, fluorescence polarization (Flu-BIM tracer) binding assay. The conditions noted are these: FP; 20 nM Bcl2, 5 nM Flu-BIM, 1 h incubation; read-out: Bcl-2 G101V (FP). On the technique in general: In fluorescence polarisation assays a small probe gives low polarisation when free and higher when bound to something large.

Regarding `Cc1sccc1C1=C(CN2CCN(c3ccc(C(=O)NS(=O)(=O)c4ccc(NCC5CCOCC5)c([N+](=O)[O-])c4)c(Oc4cnc5[nH]ccc5c4)c3)CC2)CCC(C)(C)C1` [Example 1, 2-((1H-pyrrolo[2,3-b]pyridin-5-yl)oxy)-4-(4-((4,4-dimethyl-2-(2-methylthiophen-3-yl)cyclohex-1-en-1-yl)methyl)piperazin-1-yl)-N-((3-nitro-4-(((tetrahydro-2H-pyran-4-yl)methyl)amino)phenyl)sulfonyl)benzamide], the IC50 stood at 32.7 nM. As for `CC1(C)CCC(CN2CCN(c3ccc(C(=O)NS(=O)(=O)c4ccc(NC[C@H]5CC[C@](C)(O)CC5)c([N+](=O)[O-])c4)c(Oc4cnc5[nH]ccc5c4)c3)CC2)=C(c2cc(-c3ccc(C(C)(C)O)cc3F)cs2)C1` [Example 62, 2-((1H-pyrrolo[2,3-b]pyridin-5-yl)oxy)-4-(4-((2-(4-(2-fluoro-4-(2-hydroxypropan-2-yl)phenyl)thiophen-2-yl)-4,4-dimethylcyclohex-1-en-1-yl)methyl)piperazin-1-yl)-N-((4-((((1r,4r)-4-hydroxy-4-methylcyclohexyl)methyl)amino)-3-nitrophenyl)sulfonyl)benzamide], the IC50 came out at 23.7 nM.

Regarding `CC(C)c1csc(C2=C(CN3CCN(c4ccc(C(=O)NS(=O)(=O)c5ccc(NC[C@H]6COCCO6)c([N+](=O)[O-])c5)c(Oc5cnc6[nH]ccc6c5)c4)CC3)CCC(C)(C)C2)c1` [Example 10, (S)—N-((4-(((1,4-dioxan-2-yl)methyl)amino)-3-nitrophenyl)sulfonyl)-2-((1H-pyrrolo[2,3-b]pyridin-5-yl)oxy)-4-(4-((2-(4-isopropylthiophen-2-yl)-4,4-dimethylcyclohex-1-en-1-yl)methyl)piperazin-1-yl)benzamide], the IC50 was 27.7 nM. The figure for `CC1(C)CCC(CN2CCN(c3ccc(C(=O)NS(=O)(=O)c4ccc(NC[C@H]5COCCO5)c([N+](=O)[O-])c4)c(Oc4cnc5[nH]ccc5c4)c3)CC2)=C(c2cc(-c3ccc(F)cc3)cs2)C1` [Example 33, (S)—N-((4-(((1,4-dioxan-2-yl)methyl)amino)-3-nitrophenyl)sulfonyl)-2-((1H-pyrrolo[2,3-b]pyridin-5-yl)oxy)-4-(4-((2-(4-(4-fluorophenyl)thiophen-2-yl)-4,4-dimethylcyclohex-1-en-1-yl)methyl)piperazin-1-yl)benzamide] is 33.1 nM. In the case of `CC1(C)CCC(CN2CCN(c3ccc(C(=O)NS(=O)(=O)c4ccc(NC[C@H]5CC[C@](C)(O)CC5)c([N+](=O)[O-])c4)c(Oc4cnc5[nH]ccc5c4)c3)CC2)=C(c2cc(-c3ccc(C(C)(C)O)cc3)cs2)C1` [Example 59, 2-((1H-pyrrolo[2,3-b]pyridin-5-yl)oxy)-N-((4-((((1r,4r)-4-hydroxy-4-methylcyclohexyl)methyl)amino)-3-nitrophenyl)sulfonyl)-4-(4-((2-(4-(4-(2-hydroxypropan-2-yl)phenyl)thiophen-2-yl)-4,4-dimethylcyclohex-1-en-1-yl)methyl)piperazin-1-yl)benzamide] it was 38.5 nM; in that of `CC(=O)NC(C)(C)c1cc(F)c(-c2csc(C3=C(CN4CCN(c5ccc(C(=O)NS(=O)(=O)c6ccc(NC[C@H]7CC[C@](C)(O)CC7)c([N+](=O)[O-])c6)c(Oc6cnc7[nH]ccc7c6)c5)CC4)CCC(C)(C)C3)c2)c(F)c1` [Example 80, 2-((1H-pyrrolo[2,3-b]pyridin-5-yl)oxy)-4-(4-((2-(4-(4-(2-acetamidopropan-2-yl)-2,6-difluorophenyl)thiophen-2-yl)-4,4-dimethylcyclohex-1-en-1-yl)methyl)piperazin-1-yl)-N-((4-((((1r,4r)-4-hydroxy-4-methylcyclohexyl)methyl)amino)-3-nitrophenyl)sulfonyl)benzamide], 23.4 nM.
